US20050070529A1, “Use of type 4 phosphodiesterase inhibitors in myocardial diseases” (Merk Pantent GmbH, priority 2001, published 2005)

Assays:
[1] = system: IL-2; assay: IL-2 production in PBMC (ELISA); format: cell-based; settings: Homo sapiens, activator mab anti-CD3, 24 h, read-out: IL2 T-cell IC50
Description: (§1) Peripheral blood mononuclear cells (PBMC) were isolated from the blood of healthy donors by the Lymphoprep gradient method. 200000 PBMC/well were cultured in RPMI1640 culture medium containing 5% heat inactivated human serum ([…]). at 37° C. and 10% CO2 in 96 well flat bottom microtiter plates. Cultures were set up as triplicates including a control group. Solutions of PDE4 inhibitors were prepared in DMSO at 10^−2 M and diluted in culture medium. Control cultures were treated with concentrations of DMSO equivalent to the inhibitor concentrations.
(§2) The culture supernatants of three independent experiments were pooled and cytokine activity in the supernatant was measured with commercially available ELISA test kits.
(§3) The data were calculated as percent inhibition/stimulation of the control without the compound and the IC50 value or EC50 value in case of stimulation was determined thereof.

[2] = system: IL-10; assay: IL-10 production in PBMC (ELISA); format: cell-based, human; settings: activator LPS, 48 h, stimulation; for EC50: Homo sapiens, read-out: IL10 macrophage EC50
Description: as §1, §2, §3

[3] = system: IFN-γ; assay: IFN-γ production in PBMC (ELISA); format: cell-based; settings: Homo sapiens, activator mab anti-CD3, 48 h, read-out: IFN-γ T-cell IC50
Description: as §1, §2, §3

[4] = system: IL-12; assay: IL-12 production in PBMC (ELISA); format: cell-based; settings: Homo sapiens, activator SAC + IFNγ, 48 h, read-out: IL12 macrophage IC50
Description: as §1, §2, §3

[5] = system: T cells within the PBMC preparation; assay: Effect of PDE4 inhibitors on T-cell proliferation (3H-thymidine incorporation, anti-CD3 stimulated PBMC); format: cell-based; settings: Homo sapiens, 120 h, monoclonal antibody to CD3, 5 days, read-out: T-cell prol. IC50
Description: Peripheral blood mononuclear cells (PBMC) were isolated from the blood of healthy donors by the Lymphoprep gradient method. 200000 PBMC/well were cultured in RPMI1640 culture medium containing 5% heat inactivated human serum (AB pool) for 5 days at 37° C. and 10% CO2 in 96 well flat bottom microtiter plates. The T cells within the PBMC preparation were selectively stimulated with an monoclonal antibody to CD3. Cultures were set up as triplicates including a control group receiving no treatment. PDE4 inhibitors were dissolved in DMSO at 10^−2 M and diluted in culture medium. Control cultures were treated with DMSO equivalent to the inhibitor concentration. 18 hrs before the end of the assay, ^3H-thymidine was added to the cultures. The incorporation of radioactivity into the cells was then measured in a beta-counter.
The data of at least three independent experiments were calculated as percent inhibition of the control (mean ±SEM) without inhibitor.

[6] = system: TNF-α; assay: TNF-α production in PBMC (ELISA); format: cell-based; settings: Homo sapiens, activator LPS, 48 h, read-out: TNF-α macrophage IC50
Description: as §1, §2, §3

IC50 [1] | EC50 [2] | IC50 [3] | IC50 [4] | IC50 [6] | IL10 macrophage EC50 [2] | SMILES | IC50 [5]
200 nM | 20 nM | 10 nM | 0.5 nM | 9 nM | – | CCOc1cc(C2=NN(Cc3ccc(NC(=O)c4cccnc4)cc3)C(=O)SC2)ccc1OC [EMD 95832] | 50 nM
60 nM | 8 nM | 8 nM | – | 30 nM | – | CCOC(=O)Nc1ccc(C(=O)N2CCCC(c3ccc(OC)c(OCC)c3)=N2)cc1 [EMD 125059] | 40 nM
3 nM | 1 nM | 5 nM | – | 2 nM | – | CCOc1cc(C2=NN(C(=O)c3ccc(NC(=O)c4ccc(OC)cc4)cc3)CCC2)ccc1OC [EMD 219901] | 7 nM
2 nM | – | 7 nM | – | 3 nM | no effect | CCOc1cc(C2=NN(C(=O)c3ccc(NC(=O)c4cccnc4)cc3)CCC2)ccc1OC [EMD 125025] | 6 nM

Continued, compound first:

SMILES | IC50 [1] | EC50 [2] | IC50 [3] | IC50 [4] | IC50 [6] | IL10 macrophage EC50 [2] | IC50 [5]
COc1ccc(C2CNC(=O)C2)cc1OC1CCCC1 (stereo not drawn) [Rolipram, reference compound] | 700 nM | 50 nM | 1000 nM | > 100 nM | 600 nM | – | 300 nM
CCOC(=O)Nc1ccc(CN2N=C(c3ccc(OC)c(OCC)c3)CCC2=O)cc1 [EMD 94360] | 300 nM | 1 nM | 50 nM | 6 nM | 30 nM | – | 20 nM
